Data taken from patent publication US20250099535A1, “GEPOTIDACIN AND VANCOMYCIN FOR USE IN THE TREATMENT OF AN INFECTION CAUSED BY STAPHYLOCOCCUS SAPROPHYTICUS” (GlaxoSmithKline Intellectual Property Development Limited, priority 2022, published 2025).
Values after ≈ are worked out from the molar mass of the structure shown. Where two headings read alike, the source gives them in different places. One block for each compound: values may come before it.

What was measured:
Format in all cases: cell-based
[1] = tested on: Staphylococcus saprophyticus; test: Time-kill kinetic assay; details: 1× MIC, 5 S. saprophyticus isolates
Description: CAMHB was used for the follow-up time-kill kinetic studies. Each organism was tested in media containing either compound alone, or both, at ½×, ¼×, and 1× their respective MICs. Time-kill concentration tubes were sampled at time 0 hours (T0), T2, T4, T8, and T24. Samples were serially diluted ten-fold up to 8 times in tubes with […] of a 0.85% saline solution. A volume of 0.1 mL was then plated onto tryptic-soy agar with 5% sheep blood from the original sample and subsequent dilutions. Plates were incubated for 24 hours at 35° C. before quantifying the viable cell count for each tube at the specified times (T0-T24).
As described in the CLSI M26-A manual, bactericidal activity was defined as a 3-log10 decrease in CFU/mL below the starting inoculum that was maintained for 24 hours. […] The number of surviving organisms in the presence of the combination was required to be ≥2 log10 CFU/mL below the starting inocula and at least one of the drugs should not affect the growth curve of the tested organism.

[2] = tested on: Staphylococcus saprophyticus; test: Baseline broth microdilution MIC (CLSI M07)
Description: (§1) MIC values were determined in triplicate by Clinical and Laboratory Standards Institute (CLSI) […] (2018) reference broth microdilution (BMD) using cation adjusted Mueller Hinton broth (CAMHB) to determine a consensus median baseline MIC value for each isolate and compound. As required by CLSI M100 (2021), quality control (QC) strains Escherichia coli ATCC 25922, Pseudomonas aeruginosa ATCC 27853, Staphylococcus aureus 29213, and Enterococcus faecalis ATCC 29212 were tested concomitantly with the clinical isolates. (QC data not shown).

[3] = tested on: Enterococcus faecalis; test: Baseline broth microdilution MIC (CLSI M07); details: for MIC: Enterococcus faecalis
Description: as §1

MIC ([2]; isolate S. saprophyticus 1106006, CAMHB, read-out: GEP MIC): 0.25 µg/mL (≈ 0.557 µM)
MIC ([2]; isolate S. saprophyticus 1113726, CAMHB, read-out: GEP MIC): 0.12 µg/mL (≈ 0.268 µM)
MIC ([2]; isolate S. saprophyticus 1115244, CAMHB, read-out: GEP MIC): 0.12 µg/mL (≈ 0.268 µM)
MIC ([2]; isolate S. saprophyticus 1125669, CAMHB, read-out: GEP MIC): 0.25 µg/mL (≈ 0.557 µM)
MIC ([2]; isolate S. saprophyticus 1129086, CAMHB, read-out: GEP MIC): 0.25 µg/mL (≈ 0.557 µM)
MIC ([3]; isolate E. faecalis 1097863, CAMHB, read-out: GEP MIC): 1 µg/mL (≈ 2.23 µM)
MIC ([3]; isolate E. faecalis 1103597, CAMHB, read-out: GEP MIC): 0.5 µg/mL (≈ 1.11 µM)
MIC ([3]; isolate E. faecalis 1103850, CAMHB, read-out: GEP MIC): 0.5 µg/mL (≈ 1.11 µM)
MIC ([3]; isolate E. faecalis 1111210, CAMHB, read-out: GEP MIC): 1 µg/mL (≈ 2.23 µM)
MIC ([3]; isolate E. faecalis 1124756, CAMHB, read-out: GEP MIC): 0.5 µg/mL (≈ 1.11 µM)
SMILES: O=c1ccc2ncc(=O)n3c2n1C[C@H]3CN1CCC(NCc2cc3c(cn2)OCCC3)CC1 [gepotidacin, (2R)-2-({4-[(3,4-dihydro-2H-pyrano[2,3-c]pyridin-6-ylmethyl)amino]-1-piperidinyl}methyl)-1,2-dihydro-3H,8H-2a,5,8a-triazaacenaphthylene-3,8-dione]
Bactericidal activity (3-log10 decrease in CFU/mL below the starting inoculum maintained for 24 hours) [1]: not achieved

SMILES: CN[C@H](CC(C)C)C(=O)N[C@H]1C(=O)N[C@@H](CC(N)=O)C(=O)N[C@H]2C(=O)N[C@H]3C(=O)N[C@H](C(=O)N[C@H](C(=O)O)c4cc(O)cc(O)c4-c4cc3ccc4O)[C@H](O)c3ccc(c(Cl)c3)Oc3cc2cc(c3O[C@@H]2O[C@H](CO)[C@@H](O)[C@H](O)[C@H]2O[C@H]2C[C@](C)(N)[C@H](O)[C@H](C)O2)Oc2ccc(cc2Cl)[C@H]1O [vancomycin]
Bactericidal activity (3-log10 decrease in CFU/mL below the starting inoculum maintained for 24 hours) [1]: not achieved
MIC ([2]; read-out: VANC MIC, isolate S. saprophyticus 1106006, CAMHB): 0.5 µg/mL (≈ 0.345 µM)
MIC ([2]; read-out: VANC MIC, isolate S. saprophyticus 1113726, CAMHB): 1 µg/mL (≈ 0.69 µM)
MIC ([2]; read-out: VANC MIC, isolate S. saprophyticus 1115244, CAMHB): 1 µg/mL (≈ 0.69 µM)
MIC ([2]; read-out: VANC MIC, isolate S. saprophyticus 1125669, CAMHB): 1 µg/mL (≈ 0.69 µM)
MIC ([2]; read-out: VANC MIC, isolate S. saprophyticus 1129086, CAMHB): 0.5 µg/mL (≈ 0.345 µM)
MIC ([3]; read-out: VANC MIC): 1 µg/mL (≈ 0.69 µM)
VANC MIC ([3]; isolate E. faecalis 1103597, CAMHB): 1 µg/mL
VANC MIC ([3]; isolate E. faecalis 1103850, CAMHB): 1 µg/mL
VANC MIC ([3]; isolate E. faecalis 1111210, CAMHB): 1 µg/mL
VANC MIC ([3]; isolate E. faecalis 1124756, CAMHB): 1 µg/mL
